Assay results as given in ChEMBL document CHEMBL3856285, “Recent progress in the identification of adenosine monophosphate-activated protein kinase (AMPK) activators” (Bioorg Med Chem Lett, 2016).

Experiments:
[1] = molecular target: T1, 5'-AMP-activated protein kinase subunit beta-1 (Homo sapiens) (UniProt Q9Y478); assay: Activation of AMPK beta1 in human HepG2 cells assessed as increase in phospho-ACC1 level at 1 uM after 2 hrs by ELISA relative to control; type: cell-based
T1 sequence (whole entry): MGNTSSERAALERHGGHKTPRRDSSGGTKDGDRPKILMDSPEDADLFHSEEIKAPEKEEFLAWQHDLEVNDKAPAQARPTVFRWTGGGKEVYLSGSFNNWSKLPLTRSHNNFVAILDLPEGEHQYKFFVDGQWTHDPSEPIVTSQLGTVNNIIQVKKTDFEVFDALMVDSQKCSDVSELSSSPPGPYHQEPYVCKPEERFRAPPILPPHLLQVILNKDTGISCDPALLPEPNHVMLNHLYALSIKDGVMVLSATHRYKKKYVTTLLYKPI

[2] = molecular target: T2, 5'-AMP-activated protein kinase catalytic subunit alpha-2/beta-1/gamma-2 (Homo sapiens, UniProt P54646+Q9UGJ0+Q9Y478); assay: Activation of recombinant human His-tagged AMPK alpha2 (2 to 552 residues)/beta1 (2 to 270 residues)/gamma2 (2 to 569 residues) expressed in baculovirus infected sf21 cells preincubated for 30 mins followed by biotinylated ACC-CREBp peptide substrate addition measured after 45 mins by HTRF assay relative to AMP
Target sequence in this assay (P54646 whole entry, one chain of several, the tested form may be a part): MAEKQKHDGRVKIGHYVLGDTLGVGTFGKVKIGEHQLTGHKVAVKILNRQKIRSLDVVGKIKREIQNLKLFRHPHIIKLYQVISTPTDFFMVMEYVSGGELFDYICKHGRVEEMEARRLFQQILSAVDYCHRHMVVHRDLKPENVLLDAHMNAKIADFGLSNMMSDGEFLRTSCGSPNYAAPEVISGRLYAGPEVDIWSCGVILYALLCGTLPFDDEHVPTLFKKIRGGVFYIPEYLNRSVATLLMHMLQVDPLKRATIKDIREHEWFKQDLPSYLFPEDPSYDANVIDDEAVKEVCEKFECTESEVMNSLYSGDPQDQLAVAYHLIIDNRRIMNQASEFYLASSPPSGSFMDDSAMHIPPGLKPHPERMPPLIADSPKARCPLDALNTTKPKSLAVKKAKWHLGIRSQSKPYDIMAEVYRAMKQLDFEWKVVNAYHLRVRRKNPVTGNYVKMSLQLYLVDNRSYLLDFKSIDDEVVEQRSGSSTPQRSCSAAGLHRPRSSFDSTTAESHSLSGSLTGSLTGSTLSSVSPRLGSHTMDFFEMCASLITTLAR
Target sequence in this assay (Q9UGJ0 whole entry partner, one chain of several, the tested form may be a part): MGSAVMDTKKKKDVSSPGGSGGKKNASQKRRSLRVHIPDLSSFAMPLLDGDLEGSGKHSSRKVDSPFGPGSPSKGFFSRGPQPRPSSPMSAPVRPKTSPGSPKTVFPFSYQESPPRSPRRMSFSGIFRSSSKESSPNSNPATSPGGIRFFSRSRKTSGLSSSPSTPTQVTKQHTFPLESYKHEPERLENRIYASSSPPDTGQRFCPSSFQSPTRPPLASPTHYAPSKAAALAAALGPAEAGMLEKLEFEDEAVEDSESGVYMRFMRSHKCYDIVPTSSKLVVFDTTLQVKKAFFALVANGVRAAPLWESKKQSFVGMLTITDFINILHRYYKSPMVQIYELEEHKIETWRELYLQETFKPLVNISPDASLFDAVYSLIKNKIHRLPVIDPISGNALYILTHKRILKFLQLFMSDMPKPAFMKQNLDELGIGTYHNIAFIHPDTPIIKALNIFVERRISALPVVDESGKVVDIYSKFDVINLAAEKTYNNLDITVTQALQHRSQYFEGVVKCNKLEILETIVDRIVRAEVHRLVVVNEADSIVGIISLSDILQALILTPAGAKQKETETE

[3] = molecular target: T3, 5'-AMP-activated protein kinase subunit beta-2 (Mus musculus) (UniProt Q6PAM0); assay: Activation of AMPK beta2 in mouse C2C12 myotubes assessed as increase in phospho-ACC1 level at 1 uM after 2 hrs by ELISA relative to control
T3 sequence (whole entry): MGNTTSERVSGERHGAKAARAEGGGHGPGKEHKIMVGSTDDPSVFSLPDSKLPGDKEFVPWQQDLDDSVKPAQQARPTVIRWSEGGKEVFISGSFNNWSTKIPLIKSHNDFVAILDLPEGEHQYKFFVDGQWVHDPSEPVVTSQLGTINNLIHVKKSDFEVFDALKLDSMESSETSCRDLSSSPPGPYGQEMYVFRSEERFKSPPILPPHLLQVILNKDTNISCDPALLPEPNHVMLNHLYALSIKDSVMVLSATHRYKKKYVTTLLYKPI

[4] = molecular target: T2, 5'-AMP-activated protein kinase catalytic subunit alpha-2/beta-1/gamma-2; assay: Activation of recombinant human His-tagged AMPK alpha2 (2 to 552 residues)/beta1 (2 to 270 residues)/gamma2 (2 to 569 residues) expressed in baculovirus infected sf21 cells preincubated for 30 mins followed by biotinylated ACC-CREBp peptide substrate addition measured after 45 mins by HTRF assay
Target sequence in this assay (P54646 whole entry, one chain of several, the tested form may be a part): as the sequence (P54646 whole entry, one chain of several, the tested form may be a part) above
Target sequence in this assay (Q9UGJ0 whole entry, one chain of several, the tested form may be a part): as the sequence (Q9UGJ0 whole entry partner, one chain of several, the tested form may be a part) above

[5] = molecular target: T4, AMP-activated protein kinase (AMPK) alpha-1/beta-1/gamma-1 (Homo sapiens) (UniProt P54619+Q9Y478+Q13131); assay: Activation of full length human recombinant AMPK alpha1/beta1/gamma1 expressed in baculovirus infected sf21 cells using SAMS peptide substrate after 30 mins in presence of [33P]ATP by TopCount analysis relative to AMP
[6] = molecular target: T5, AMPK alpha2/beta2/gamma1 (Homo sapiens) (UniProt P54646+O43741+P54619); assay: Activation of full length human His6-tagged AMPK alpha2/beta2/gamma1 expressed in Escherichia coli BL21-CodonPlus (DE3)-RIPL preincubated for 10 mins followed by FL-Peptide 7 substrate addition measured after 2 hrs by fluorescence assay
[7] = molecular target: T4, AMP-activated protein kinase (AMPK) alpha-1/beta-1/gamma-1 (Homo sapiens); assay: Activation of full length human recombinant AMPK alpha1/beta1/gamma1 preincubated for 10 mins followed by FL-Peptide 7 addition measured after 2 hrs by fluorescence assay; type: protein-complex assay
[8] = molecular target: T4, AMP-activated protein kinase (AMPK) alpha-1/beta-1/gamma-1 (Homo sapiens); assay: Activation of full length human recombinant AMPK alpha1/beta1/gamma1 preincubated for 10 mins followed by FL-Peptide 7 addition measured after 2 hrs by fluorescence assay relative to AMP; type: protein-complex assay
[9] = molecular target: T5, AMPK alpha2/beta2/gamma1 (Homo sapiens); assay: Activation of full length human His6-tagged AMPK alpha2/beta2/gamma1 expressed in Escherichia coli BL21-CodonPlus (DE3)-RIPL preincubated for 10 mins followed by FL-Peptide 7 substrate addition measured after 2 hrs by fluorescence assay relative to AMP
[10] = molecular target: T5, AMPK alpha2/beta2/gamma1 (Homo sapiens); assay: Activation of full length human His6-tagged AMPK alpha2/beta2/gamma1 expressed in Escherichia coli BL21-CodonPlus (DE3)-RIPL using FL-Peptide 7 substrate incubated for 2 hrs by fluorescence assay
[11] = molecular target: T5, AMPK alpha2/beta2/gamma1 (Homo sapiens); assay: Activation of full length human His6-tagged AMPK alpha2/beta2/gamma1 expressed in Escherichia coli BL21-CodonPlus (DE3)-RIPL using FL-Peptide 7 substrate incubated for 2 hrs by fluorescence assay relative to AMP
[12] = molecular target: T6, AMP-activated protein kinase (AMPK) alpha-1/beta-1/gamma-1 (Homo sapiens, UniProt P54619+Q13131+Q9Y478); assay: Activation of full length human His/GST-tagged AMPK alpha1/beta1/gamma1 expressed in baculovirus expression system after 1 hr by Z'Lyte assay
[13] = molecular target: AMPK alpha2/beta1/gamma1 (Homo sapiens) (UniProt P54646+P54619+Q9Y478); assay: Activation of full length human recombinant AMPK alpha2/beta1/gamma1 expressed in baculovirus infected sf21 cells using 5'-FAM-SAMS peptide substrate after 45 mins by fluorescence assay relative to AMP
[14] = molecular target: AMP-activated protein kinase, AMPK (Homo sapiens) (UniProt P54646+O43741+P54619+Q9UGJ0+Q9Y478+Q13131+Q9UGI9); assay: Activation of human recombinant AMPK assessed as increase in ADP accumulation using SAMS peptide after 30 mins by fluorescence assay
[15] = molecular target: T6, AMP-activated protein kinase (AMPK) alpha-1/beta-1/gamma-1; assay: Binding affinity for full length human N-terminal His/BAP-tagged AMPK alpha1/beta1/gamma1 expressed in Escherichia coli BL21-CodonPlus by surface plasmon resonance method
[16] = molecular target: AMP-activated protein kinase, AMPK; assay: Activation of recombinant AMPK (unknown origin) after 30 mins in presence of [gamma33P]ATP by scintillation proximity assay; design: species or system Homo sapiens
[17] = molecular target: T6, AMP-activated protein kinase (AMPK) alpha-1/beta-1/gamma-1; assay: (§1) Activation of full length human phosphorylated His-tagged AMPK alpha1/beta1/gamma1 expressed in Escherichia coli BL21-CodonPlus (DE3)-RIPL using SAMS peptide substrate preincubated for 15 mins followed by PP2A addition for 90 mins followed by substrate addition measured after 60 mins in presence of [33P]ATP by scintillation counting method
[18] = molecular target: T4, AMP-activated protein kinase (AMPK) alpha-1/beta-1/gamma-1 (Homo sapiens); assay: as §1, with “method relative to AMP” for “method”
[19] = molecular target: T4, AMP-activated protein kinase (AMPK) alpha-1/beta-1/gamma-1 (Homo sapiens); assay: Activation of full length human recombinant AMPK alpha1/beta1/gamma1 expressed in baculovirus infected sf21 cells using 5'-FAM-SAMS peptide substrate after 45 mins by fluorescence assay relative to AMP
[20] = molecular target: T6, AMP-activated protein kinase (AMPK) alpha-1/beta-1/gamma-1; assay: Activation of full length human recombinant AMPK alpha1/beta1/gamma1 expressed in baculovirus infected sf21 cells using 5'-FAM-SAMS peptide substrate after 45 mins by fluorescence assay
[21] = molecular target: AMPK alpha1/beta1/gamma2 (Homo sapiens) (UniProt Q9UGJ0+Q9Y478+Q13131); assay: Activation of human recombinant AMPK alpha1/beta1/gamma2 expressed in Escherichia coli assessed as residual activity at 30 uM using AMARAA peptide relative to control
AMPK alpha1/beta1/gamma2 (Homo sapiens), sequence (Q13131 whole entry partner, one chain of several): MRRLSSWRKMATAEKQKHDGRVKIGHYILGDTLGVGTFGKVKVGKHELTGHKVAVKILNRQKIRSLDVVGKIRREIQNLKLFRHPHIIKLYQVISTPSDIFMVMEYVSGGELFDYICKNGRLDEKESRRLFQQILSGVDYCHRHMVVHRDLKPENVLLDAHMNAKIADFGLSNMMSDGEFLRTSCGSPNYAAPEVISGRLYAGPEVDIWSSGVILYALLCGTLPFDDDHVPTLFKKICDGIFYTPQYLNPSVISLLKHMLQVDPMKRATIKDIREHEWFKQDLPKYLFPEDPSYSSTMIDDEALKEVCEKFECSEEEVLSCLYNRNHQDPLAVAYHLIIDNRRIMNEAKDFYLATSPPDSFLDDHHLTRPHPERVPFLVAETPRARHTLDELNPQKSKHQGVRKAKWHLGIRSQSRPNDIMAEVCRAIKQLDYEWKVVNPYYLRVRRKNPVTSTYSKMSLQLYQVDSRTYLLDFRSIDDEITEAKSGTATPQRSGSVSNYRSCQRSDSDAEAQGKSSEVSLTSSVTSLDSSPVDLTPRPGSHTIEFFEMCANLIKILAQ
AMPK alpha1/beta1/gamma2 (Homo sapiens), sequence (Q9UGJ0 whole entry, one chain of several): as the sequence (Q9UGJ0 whole entry partner, one chain of several, the tested form may be a part) above

T5 sequence (O43741 whole entry, looked up): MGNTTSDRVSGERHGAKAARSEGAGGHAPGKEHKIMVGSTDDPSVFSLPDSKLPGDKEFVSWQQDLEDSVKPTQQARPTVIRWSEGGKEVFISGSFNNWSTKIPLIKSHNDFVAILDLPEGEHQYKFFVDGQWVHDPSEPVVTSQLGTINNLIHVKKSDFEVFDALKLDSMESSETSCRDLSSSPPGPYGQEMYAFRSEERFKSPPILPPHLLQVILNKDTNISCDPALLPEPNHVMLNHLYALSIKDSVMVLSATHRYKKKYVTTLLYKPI
T5 sequence (P54619 whole entry, looked up): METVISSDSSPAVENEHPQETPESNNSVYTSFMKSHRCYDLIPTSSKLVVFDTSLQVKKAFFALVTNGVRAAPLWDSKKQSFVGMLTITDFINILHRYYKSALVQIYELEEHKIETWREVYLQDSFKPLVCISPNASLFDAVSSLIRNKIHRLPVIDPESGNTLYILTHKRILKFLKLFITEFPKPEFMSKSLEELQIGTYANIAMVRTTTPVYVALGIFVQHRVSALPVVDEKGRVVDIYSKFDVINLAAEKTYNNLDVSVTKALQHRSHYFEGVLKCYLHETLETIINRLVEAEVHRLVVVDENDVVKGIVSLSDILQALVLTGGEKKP
T5 sequence (P54646 whole entry, looked up): as the sequence (P54646 whole entry, one chain of several, the tested form may be a part) above
T4 sequence (P54619 whole entry, one chain of several): as the sequence (P54619 whole entry, looked up) above
T4 sequence (Q13131 whole entry partner, one chain of several): as the sequence (Q13131 whole entry partner, one chain of several) above
T6 sequence (P54619 whole entry, one chain of several): as the sequence (P54619 whole entry, looked up) above
T6 sequence (Q13131 whole entry, one chain of several): as the sequence (Q13131 whole entry partner, one chain of several) above
AMPK alpha2/beta1/gamma1 (Homo sapiens), sequence (P54619 whole entry partner, one chain of several): as the sequence (P54619 whole entry, looked up) above
AMPK alpha2/beta1/gamma1 (Homo sapiens), sequence (P54646 whole entry, one chain of several): as the sequence (P54646 whole entry, one chain of several, the tested form may be a part) above

**Q.** Which Activity [1] does the source give for `COc1cc(C(O)=C2C(=O)Nc3cc(Cl)c(-c4ccc5c(ccn5C)c4)cc32)on1` here?
**A.** Its Activity is 132%.

**Q.** What about the Emax [2] of the same compound?
**A.** Its Emax is 256%.

**Q.** And the Activity [3]?
**A.** The Activity was 114%.

**Q.** What about the EC50 [4] of the same compound?
**A.** Its EC50 is 0.0007 µM.

**Q.** For `Cc1ccc(Oc2nc3cc(-c4ccc5c(ccn5C)c4)c(Cl)cc3[nH]2)cc1C(=O)O`, which %max [5] is on record?
**A.** Its %max is 241%.

**Q.** How did the EC150 [6] turn out when `CC(C)(C(=O)O)[C@H]1CC[C@H](Oc2nc3nc(-c4ccc(C5(CO)CC5)cc4)c(Cl)cc3[nH]2)CC1` was run?
**A.** Its EC150 is 5 nM.

**Q.** What about the EC150 [7] of the same compound?
**A.** Its EC150 is 5.6 nM.

**Q.** And the %max [8]?
**A.** Its %max is 257%.

**Q.** What about the %max [9] of the same compound?
**A.** Its %max is 237%.

**Q.** How did the EC150 [10] turn out when `O[C@@H]1CO[C@H]2[C@@H]1OC[C@H]2Oc1cc2nc(-c3c(F)cc(N4CCOCC4)cc3F)c(F)cc2[nH]1` was run?
**A.** Its EC150 is 8.8 nM.

**Q.** What about the Emax [11] of the same compound?
**A.** Its Emax is 729%.

**Q.** `Nc1nc(-c2ccc(-n3c(Cl)cc4[nH]c(=O)n(-c5cccc(C(=O)O)c5)c(=O)c43)cc2)cs1` was tested. Which EC50 [12] did it give?
**A.** The EC50 was 0.631 µM.

**Q.** For `N#Cc1ccc(-c2ccc(-c3nc4nc(O[C@@H]5CO[C@H]6[C@@H]5OC[C@H]6O)[nH]c4cc3Cl)cc2)c(F)c1`, which %max [13] is on record?
**A.** The %max was 304%.

**Q.** `CC1(C)CC(c2ccccc2NS(=O)(=O)c2cccc(F)c2)Nc2ccc(C(F)(F)F)cc21` (stereo unspecified) was tested. Which EC30 [14] did it give?
**A.** The EC30 was 1.14 µM.

**Q.** `N#Cc1c(O)c2c(-c3ccc(-c4ccccc4O)cc3)c(Cl)sc2[nH]c1=O` was tested. Which Kd [15] did it give?
**A.** Its Kd is 0.074 µM.

**Q.** `O=C(O)c1ccc2c(c1)C1(CC1)CC(c1cc(Cl)ccc1F)N2` (stereo unspecified) was tested. Which EC50 [16] did it give?
**A.** Its EC50 is 1.24 µM.

**Q.** With `O=C(O)c1n[nH]c2cc(Cl)c(-c3ccc(C4(O)CCC4)cc3)cc12` as the compound, how does the EC50 [17] read?
**A.** Its EC50 is 0.0083 µM.

**Q.** What about the %max [18] of the same compound?
**A.** The %max was 80%.

**Q.** How did the %max [19] turn out when `Cc1ccc(Oc2nc3nc(-c4ccc(N5CCCC5)cc4)c(Cl)cc3[nH]2)cc1C(=O)O` was run?
**A.** The %max was 681%.

**Q.** And the EC50 [20]?
**A.** Its EC50 is 0.001 µM.

**Q.** How did the Activity [21] turn out when `Cc1ccc(-c2c(O)c3c(-c4ccc5ccccc5c4O)c(Cl)sc3[nH]c2=O)cc1` was run?
**A.** Its Activity is over 90%.
